What was measured:
[1] = system: vaccine (specific immunity); assay: delayed-type hypersensitivity (DTH) against vaccine, β-carotene feeding; type: in vivo, dog (Beagle); conditions: 20 or 50 mg of β-carotene
Experimental: (§1) The following parameters were assessed in all the animals or in the peripheral blood lymphocytes: (1) delayed-type hypersensitivity (DTH) against PHA (nonspecific immunity) and vaccine (specific immunity), (2) lymphocyte proliferation, (3) lymphocyte populations and (4) immunoglobulins (Ig).

[2] = type: in vivo, dog (Beagle)
Experimental: (§2) In a fourth study, female Beagles (4 to 5 mo old) were supplemented daily with 0, 25, 50 or 100 mg of β-carotene to study the role of dietary β-carotene in enhancing the cell-mediated and humoral immune systems of the dog. The following parameters were assessed in all the animals or in the peripheral blood lymphocytes: (1) delayed-type hypersensitivity (DTH) against PHA (nonspecific immunity) and vaccine (specific immunity), (2) lymphocyte proliferation, (3) lymphocyte populations and (4) immunoglobulins (Ig).

[3] = plasma β-carotene on daily feeding for 7 consecutive days; parameters: species or system dog (Beagle); conditions: dog, in vivo
Experimental: (§3) Female Beagle dogs (18 to 19 months of age; 7 to 9 kg body weight) were fed a basal diet (The lams Co., Lewisburg, OH) which met or exceeded the requirement for all essential nutrients. Animals were housed indoors in light- (14 hr light; 10 hr dark) and temperature-controlled rooms. A test was conducted to study the uptake profile of β-carotene after a single oral dose of β-carotene.
(§4) Blood plasma was separated by centrifugation and β-carotene concentrations were analyzed using high performance liquid chromatography (HPLC) as follows. All procedures were conducted under dim light. Duplicate aliquots of plasma, each leukocyte homogenate, and each leukocyte subcellular fraction were extracted with a 1:1 mixture of diethyl ether and petroleum ether in the presence of BHT. The ether phase was removed and dried under a stream of nitrogen. The residue was reconstituted in mobile phase for the HPLC determination of β-carotene. Samples (50 μl) were injected onto a 5 μm spherical C-18 reverse-phase column (3.9×150 mm; Resolve) and eluted with a 47:47:6 (v/v/v) mixture of acetonitrile, methanol, and chloroform at a flow rate of 1.0 ml/min.
In a second study, the dogs (n=6/treatment) were fed daily at 0800 hr for 7 consecutive days with 0, 12.5, 25, 50 or 100 mg β-carotene. […] Plasma was isolated and analyzed for concentrations of β-carotene.

cancer = conditions: supplementation alone, compared with diets high in antioxidants; cited from earlier work
immunoglobulins (Ig) = assay: immunoglobulins / antibody levels in the blood, β-carotene feeding; type: in vivo, dog (Beagle)
Experimental: FIG. 1 is a graph of antibody concentration in dogs (mg/dl) versus mg/kg diet of beta-carotene; and
as §1

lymphocyte [4] = assay: mitogen-induced lymphocyte blastogenesis, β-carotene feeding; type: cell-based, dog (Beagle)
Experimental: as §2

blood lymphocytes = system: blood lymphocytes; parameters: species or system dog (Beagle); conditions: dog, in vivo
Experimental: as §3, §4
(§5) A third study was designed to study the uptake of β-carotene in dogs by blood lymphocytes. The dogs (n=8/treatment) were fed 0, 50 or 100 mg of β-carotene daily for 30 days. Blood was sampled from all dogs via the jugular vein on days 10, 20 and 30. Blood lymphocytes and neutrophils were separated by density gradient centrifugation. Cell numbers were enumerated. Lymphocytes and neutrophils were resuspended in PBS containing 3% sodium ascorbate as an antioxidant. An aliquot of the cell suspension was sonicated for 30 seconds to disrupt the cells. The leukocyte homogenates were extracted for HPLC analysis of β-carotene.
(§6) On day 30, a larger aliquot of blood was taken and leukocyte suspensions prepared as described above for subsequent subcellular fractionation. Cells were disrupted by sonication for 20 seconds in 5 volumes of 0.25 M sucrose. Sodium ascorbate was added as the antioxidant. The homogenate was centrifuged (600×g for 10 min at 4° C.) and the nuclear pellet separated from the supernatant. The postnuclear supernatant was centrifuged (17,300×g for 20 min at 4° C.) to separate the mitochondrial fraction. The postmitochondrial supernatant was centrifuged (102,000×g for 60 min at 4° C.) to separate the microsomal from the cytosolic fraction. Each subcellular fraction was analyzed for β-carotene content by HPLC.

CD4+ cells = assay: lymphocyte populations, β-carotene feeding; type: in vivo, dog (Beagle); conditions: 20 or 50 mg, week 8, compared to controls
Experimental: as §1

CD8 cells = assay: lymphocyte populations, β-carotene feeding; type: in vivo, dog (Beagle); conditions: 20 mg, weeks 2 and 4
Experimental: as §1

[5] = uptake of β-carotene by blood neutrophils and their subcellular fractions; type: in vivo, dog (Beagle); conditions: dog, blood neutrophils, po; 50 or 100 mg daily; read-out: time of maximal uptake by blood neutrophils
Experimental: as §3, §4, §5, §6

blood neutrophils = assay: as above; type: in vivo, dog (Beagle); conditions: dog, in vivo
Experimental: as §3, §4, §5, §6

IL-2 = IL-2 production, β-carotene feeding; type: cell-based, dog (Beagle)
[6] = system: PHA (nonspecific immunity); assay: delayed-type hypersensitivity (DTH) against PHA, β-carotene feeding; type: in vivo, dog (Beagle); conditions: 50 mg of β-carotene
Experimental: as §2

immune system = assay: summary of the results from each of the studies (Table 1); type: in vivo, dog
mouse splenocytes = conditions: cited from earlier work
IgG = assay: immunoglobulins, β-carotene feeding; type: in vivo, dog (Beagle); conditions: as early as 1 week after supplementation
Experimental: as §2

IgM = assay: immunoglobulins, β-carotene feeding; type: in vivo, dog (Beagle); conditions: as early as 1 week after supplementation
Experimental: as §2

[7] = uptake profile of plasma β-carotene after a single oral dose; parameters: species or system dog (Beagle); conditions: dog, in vivo
Experimental: as §3
To study the uptake of oral β-carotene in dogs given a single dose of β-carotene orally, dogs (n=6/treatment) were given once perorally 0, 50, 100 or 200 mg of β-carotene (10% cold water dissolvable; BASF Corp., Ludwigshafen, Germany). The appropriate dose of β-carotene was dissolved in 5 ml of water fed orally by using a feeding syringe. In order to establish appropriate sampling times, two dogs were used in a preliminary study. These dogs were fed once with 50 mg β-carotene and blood sampled at 0 (immediately prior to β-carotene feeding), 3, 6, 9, 12, 15, 18, 21 and 24 hr.
as §4

lymphocyte [8] = assay: lymphocyte mitogenic response to ConA and PHA, vitamin E diets; type: cell-based, dog (Beagle); conditions: 8 weeks
From the text: Twenty young (mean age 2 years) and 20 old (mean age 9.2 years) Beagles were fed a standard commercial chicken/corn-based diet formulated to contain 27 IU/kg diet of vitamin E (NRC recommendation) (control diet) for 1 month prior to the commencement of the experiment in order to stabilize the dogs' vitamin E levels. Young and old dogs were then randomly assigned to the diets containing 27 IU/kg diet of vitamin E or 280 IU/kg diet of vitamin E for 8 weeks. Blood was collected before and after 8 weeks of dietary treatments for measurement of plasma vitamin E levels and assessment of lymphocyte mitogenic response to ConA (concanavalin A) and PHA (phytohemagglutinin).

[9] = system: chemical-induced carcinogenesis; conditions: mice; cited from earlier work
lymphocyte [10] = conditions: rats; cited from earlier work
[11] = daily β-carotene supplementation

For `CC1=C(/C=C/C(C)=C/C=C/C(C)=C/C=C/C=C(C)/C=C/C=C(C)/C=C/C2=C(C)CCCC2(C)C)C(C)(C)CCC1` [β-carotene], the “DTH response to the vaccine” value [1] was “significantly higher DTH response”, the plasma retinol [2, 11] was “did not influence” and the “plasma α-tocopherol” value [2, 11] was “did not influence”. The “plasma β-carotene concentrations” value ([2]; dog, in vivo) was “increased plasma β-carotene concentrations in a dose-dependent manner”, the “plasma β-carotene after the last dose, higher than after the first dose” value [3] was 2.5-4 fold and the magnitude of protection (cancer) was “do not provide the same magnitude of protection”. The “increases in Ig” value (immunoglobulins (Ig); 0 to 20 mg of β-carotene) was “dose dependent”, the “antibody response for both Ig” value (immunoglobulins (Ig); 20 mg of β-carotene) was “consistently had the greatest antibody response” and the “increase in antibody levels in the blood” value (immunoglobulins (Ig); FIG. 1, addition of β-carotene to the diet) was 20%. The “increases in Ig” value (immunoglobulins (Ig); highest level, 50 mg) was “did not produce a further increase”, the mitogen-induced lymphocyte blastogenesis (lymphocyte [4]) was “did not influence” and the “share of total β-carotene in lymphocytes, cytosol” value (blood lymphocytes) was 52-62%. The “share of total β-carotene in lymphocytes, microsomes” value (blood lymphocytes) was 16-23%, the “share of total β-carotene in lymphocytes, mitochondria” value (blood lymphocytes) was 14-17% and the “share of total β-carotene in lymphocytes, nuclei” value (blood lymphocytes) was 6-8%. For the same compound, the “β-carotene concentrations in lymphocytes, 50 versus 100 mg” value (blood lymphocytes) was “no significant treatment difference”, the “population of CD4+ cells” value (CD4+ cells) was “elevated population of CD4+ cells” and the “population of CD8 cells” value (CD8 cells) was “elevated population of CD8 cells”. The Tmax [5] was ≤ 240 h, the “dose effect on uptake by blood neutrophils” value (blood neutrophils) was “No significant dose effect was observed” and the “β-carotene in the cytosolic fraction of blood neutrophils” value (blood neutrophils) was 61-68. The “β-carotene in the nuclei of blood neutrophils” value (blood neutrophils) was “not detected”, the IL-2 production (IL-2) was “did not influence” and the “DTH response to PHA challenge” value [6] was “greatest response”. For the same compound, the “Increase antibody levels in the blood” value (immune system; Table 1) was “.check mark”, the “Optimize types of cells present in the blood” value (immune system; Table 1) was “.check mark” and the “Optimize vaccine recognition by the dog” value (immune system; Table 1) was “.check mark”. For the same compound, the “ex vivo antibody response of mouse splenocytes to T-dependent antigens” value (mouse splenocytes) was “increase ex vivo antibody response”, the “concentration of IgG” value (IgG) was “increased significantly” and the “concentration of total IgG” value (IgG; total IgG) was “increased significantly”. For the same compound, the “concentration of IgM” value (IgM) was “increased significantly”, the “concentration of β-carotene in plasma of dogs, lower than in cats” value [7] was 10-16 fold and the “peak concentrations of blood β-carotene, dogs versus cats” value ([7]; po) was “occurred earlier in dogs than in cats”. It also gave a Tmax ([7]; po, preliminary study, two dogs, 50 mg once orally, plasma, read-out: time of peak concentrations of β-carotene) of 3 to 6 h.
In the case of `CC1=C(/C=C/C(C)=C/C=C/C(C)=C/C=C/C=C(C)/C=C/C=C(C)/C=C/C2=C(C)C(=O)[C@@H](O)CC2(C)C)C(C)(C)C[C@H](O)C1=O` [Astaxanthin, astaxanthin], the “ex vivo antibody response of mouse splenocytes to T-dependent antigens” value (mouse splenocytes) is given as “increase ex vivo antibody response”.
With vitamin E the “ConA and PHA-stimulated proliferation” value (lymphocyte [8]; dogs supplemented with 280 IU/kg diet) was “No such decrease was observed”, the mitogen-stimulated lymphocyte proliferation (lymphocyte [8]; old dogs, 27 or 280 IU/kg diet) was “did not show a significant change” and the “ConA and PHA-stimulated proliferation” value (lymphocyte [8]; young dogs, 27 IU/kg diet) was “significant decrease”. The magnitude of protection (cancer) was “do not provide the same magnitude of protection” and the “Optimize immune cell activity (T-cells)” value (immune system; Table 1, Vitamin E column) was “.check mark”.
In the case of `CC1=C(/C=C/C(C)=C/C=C/C(C)=C/C=C/C=C(C)/C=C/C=C(C)/C=C/C2=C(C)C(=O)CCC2(C)C)C(C)(C)CCC1=O` [canthaxanthin], the chemical-induced carcinogenesis [9] is given as “prevent chemical-induced carcinogenesis in mice” and the lymphocyte proliferation (lymphocyte [10]) is given as “increase lymphocyte proliferation in rats”.
